The term EC50 denotes the concentration giving half of the maximal effect. Usually AC50 stands for the midpoint of the concentration-response curve, whichever way the signal moves. A word on the IC50: it is the midpoint of a concentration-inhibition curve.

Results on five molecules are retold here after ChEMBL document CHEMBL1201862, “PubChem BioAssay data set” (2004).

Assay [1] concerns the target Muscarinic acetylcholine receptor M5 (Homo sapiens, UniProt P08912). As to the kind of experiment: potentiation of ACh response at human M5 – cell-based, concentration-response curve, dose response (AID 651878). Format: functional.
Assay [2] in a line: Dd2 parasite growth inhibition in erythrocytes – SYBR Green, dry powder samples, set 4, dose response (AID 1159572). The class given is functional, cell-based.
The nature of assay [3]: antimalarial activity against Dd2 parasites – SYBR Green fluorescence, erythrocytes, dry powder, set 2, dose response (AID 1159574). Format: functional, cell-based.
A short description of assay [4]: growth inhibition of PfATP4-mutant resistant parasites – NITD609-resistant line, SYBR Green, dry powder, dose response (AID 1159571).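 Further: parasites synchronized at ring stage by sorbitol before testing.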 Format: functional, cell-based.
The nature of assay [5]: toxicity to human HepG2 hepatoma cells – cell-based, plate reader, dry powder samples, cytotoxicity control, dose response (AID 1159569).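 Further: inhibitor potency with signal falling toward the positive control level.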 The class given is functional.
The nature of assay [6]: P. falciparum Dd2 growth inhibitors, dose response, SYBR Green, cherry-picked samples (AID 1159567). The class given is functional, cell-based.
Assay [7] can be described thus: toxicity to human hepatoma HepG2 cells – cell-based, cherry-picked samples, cytotoxicity control, dose response (AID 1159577). The class given is functional.
Assay [8] can be described thus: growth inhibition of yeast DHODH-expressing 3D7 parasites – SYBR Green, dry powder samples, dose response (AID 1159570).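 Further: parasite growth measured after 72 hours of compound exposure.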 The class given is functional, cell-based.
Assay [9] can be described thus: Dd2 malaria parasite growth inhibition potency – SYBR Green, dry powder samples, dose response (AID 1159566).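 Further: potency for growth inhibition with lower SYBR green DNA signal.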 The class given is functional, cell-based.
The nature of assay [10]: Dd2 parasite growth inhibition in erythrocytes – SYBR Green, dry powder samples, set 9, dose response (AID 1159568). Format: functional, cell-based.
Assay [11] concerns the target NAD-dependent protein deacylase sirtuin-5, mitochondrial (Homo sapiens, UniProt Q9NXA8). The experiment in a line: sirtuin-5 deacylation blockers, concentration series – biochemical, fluorescence imaging, cherry-pick, set 5, dose response (AID 720591).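 Further: desuccinylation of succinyl peptide AMC substrate read as fluorescence after trypsin release; potency of inhibitors that lower fluorescence and may act on trypsin instead.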
Assay [12] can be described thus: rise of 4N DNA cells, HeLa – IC50, dose response (AID 1117351). The class given is functional, cell-based.
The target of assay [13] is T1, COUP transcription factor 2 (Homo sapiens, UniProt P24468).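 Further: HEK293 cells transiently cotransfected with COUP-TFII expression vector and reporter; luciferase reporter luminescence driven by COUP-TFII from the pX2-168 reporter plasmid.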
T1 sequence (P24468 whole entry): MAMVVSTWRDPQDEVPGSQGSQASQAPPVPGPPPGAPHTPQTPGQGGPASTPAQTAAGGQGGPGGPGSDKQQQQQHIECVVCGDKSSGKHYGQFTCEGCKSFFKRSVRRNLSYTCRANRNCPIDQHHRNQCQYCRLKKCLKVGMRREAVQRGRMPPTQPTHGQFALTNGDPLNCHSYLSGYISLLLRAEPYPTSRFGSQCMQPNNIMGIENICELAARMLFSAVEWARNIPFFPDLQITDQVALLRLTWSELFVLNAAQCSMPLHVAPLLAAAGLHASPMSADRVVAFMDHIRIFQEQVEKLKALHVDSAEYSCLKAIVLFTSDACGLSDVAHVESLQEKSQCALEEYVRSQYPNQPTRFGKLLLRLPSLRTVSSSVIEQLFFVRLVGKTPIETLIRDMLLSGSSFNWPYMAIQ
As to the kind of experiment: Luminescence-based cell-based high throughput dose response assay to identify inhibitors of COUP-TFII (NR2F2). The class given is functional.

Assay [14] is described as follows: reduction of Shn3 3'UTR-driven luciferase in osteoblasts – cell-based, Clone20 osteoblasts, firefly luciferase, cherry-picked, dose response (AID 624132).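 Further: firefly luciferase luminescence from reporter carrying the Shn3 3'UTR in osteoblasts.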 The class given is functional.
The target of assay [15] is Heat shock protein HSP 90-alpha (Homo sapiens, UniProt P07900). The class given is functional, organism-based.
Assay [16] in a line: rise of 2N DNA cells, HeLa – IC50, dose response (AID 1117349). The class given is functional, cell-based.
A short description of assay [17]: reduced cellular PGC1a acetyl-lysine signal – cell-based, cherry-picked samples, dose response (AID 720514).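 Further: potency may reflect raised or lowered acetylation signal.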 Format: functional.
A short description of assay [18]: non-specific 3'UTR reporter inhibition in Clone20-Shn3RL – cell-based, Renilla luciferase, cherry-picked, counter-screen for Shn3 inhibitor project, dose response (AID 624133). The class given is functional. Background: The purpose of a counterscreen is to sort out artefacts and off-target activity.

The source made the active and inactive calls. Where a SMILES comes first, the peptide text is derived from it. Bridges are numbered along the chain shown (N, C = ends). [ ]: non-standard residue; d: D form. The star is where a group is joined. bishTyr = N[C@@H](CCCc1ccc(O)cc1)C(=O)O; Tigloyl = C/C=C(\C)C(=O)*; Dhb = C/C=C(\N)C(=O)O

Chain of NAD-dependent protein deacylase sirtuin-5, mitochondrial (Q9NXA8 whole entry): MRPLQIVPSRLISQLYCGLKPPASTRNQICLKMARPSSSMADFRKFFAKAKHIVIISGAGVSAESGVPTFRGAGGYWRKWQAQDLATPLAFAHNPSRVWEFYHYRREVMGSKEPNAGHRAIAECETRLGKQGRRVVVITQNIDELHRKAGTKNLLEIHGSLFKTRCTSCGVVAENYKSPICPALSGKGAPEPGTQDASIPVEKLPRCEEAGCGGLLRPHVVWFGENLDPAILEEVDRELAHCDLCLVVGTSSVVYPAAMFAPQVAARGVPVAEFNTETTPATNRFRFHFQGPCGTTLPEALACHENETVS
Chain of Muscarinic acetylcholine receptor M5 (P08912 whole entry): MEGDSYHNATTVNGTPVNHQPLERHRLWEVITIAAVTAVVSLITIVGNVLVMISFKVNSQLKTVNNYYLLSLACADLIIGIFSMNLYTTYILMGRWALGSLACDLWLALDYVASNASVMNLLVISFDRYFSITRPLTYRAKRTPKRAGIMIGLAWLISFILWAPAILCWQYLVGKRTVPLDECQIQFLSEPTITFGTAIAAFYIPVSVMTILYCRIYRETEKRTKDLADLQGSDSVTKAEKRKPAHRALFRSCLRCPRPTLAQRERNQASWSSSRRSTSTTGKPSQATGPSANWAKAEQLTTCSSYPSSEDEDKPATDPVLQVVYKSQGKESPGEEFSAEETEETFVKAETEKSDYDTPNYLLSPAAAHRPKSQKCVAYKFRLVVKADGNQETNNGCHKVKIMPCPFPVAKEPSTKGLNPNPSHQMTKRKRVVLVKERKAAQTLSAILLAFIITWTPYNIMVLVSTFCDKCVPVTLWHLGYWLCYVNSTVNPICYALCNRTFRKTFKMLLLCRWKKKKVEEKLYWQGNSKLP

For `O=C1C(=O)N(CCCOc2ccccc2)c2ccc(OC(F)(F)F)cc21`, the concentration giving a half-maximal response (EC50) in assay [1] was 1970 nM (active).
For `COc1ccc2c3c([nH]c2c1)[C@H](CO)N(C(C)=O)CC31CCN(C(=O)Nc2ccccc2F)CC1`, the concentration at half-maximal activity (AC50) is 101 nM (active) in assay [2]; 82.8 nM (active) in [3]; 16.6 nM (active) in assay [4]; 46900 nM (active) in assay [5]; < 300 nM (active) in [6]; 33400 nM (active) in [7]. The half-maximal activity concentration (AC50) is 26.3 nM (active) in assay [8] and 27.9 nM (active) in [9].
`C[C@@H]1CCCCO[C@H](CN(C)S(=O)(=O)c2ccccc2)[C@@H](C)CN([C@H](C)CO)C(=O)c2cc(NC(=O)Nc3ccc4c(c3)OCO4)ccc2O1`: in assay [10], the half-maximal activity concentration (AC50) is 8490 nM (active).
For the molecule `C/C=C1\NC(=O)[C@H](C)NC(=O)[C@@H](NC(=O)[C@H](Cc2ccc(O)cc2)NC(=O)[C@@H](NC(=O)/C(C)=C/C)C(C)C)[C@@H](C)OC(=O)[C@H](CCCc2ccc(O)cc2)NC(=O)[C@@H](CCC(=O)O)NC1=O` (Tigloyl-VYTA[Dhb][dE][bishTyr]; ester 3-C), the concentration at half-maximal activity (AC50) in assay [11] is 12600 nM (active).
As to `C[C@@H]1C[C@@H]([C@H](O)CC2CC(=O)NC(=O)C2)C(=O)[C@@H](C)C1` [CYCLOHEXIMIDE], the IC50 in assay [12] was > 10000 nM (inactive); in assay [13], 1320 nM (active); in assay [16], > 10000 nM (inactive). Besides, the AC50 in assay [14] is 345 nM (active); in assay [15], < 195 nM (active); in assay [17] it was 2230 nM (active); in assay [18] it was 695 nM (active).
